These results are taken from US7538241B2, “Hsp90 family protein inhibitors” (Kyowa Hakko Kogyo Co., Ltd., priority 2003, dated 2009).

For this assay, the system named is human chronic myelocytic leukemia-derived K562 cells. Briefly: Cell growth inhibition test with K562 cells (WST-1). Format: cell-based. The conditions noted are these: 72 hours, read-out: 50% growth inhibition concentration (GI50). The protocol:
In a 96-well plate (Nunc), human chronic myelocytic leukemia-derived K562 cells were sown in an amount of 1500 cells/well, and pre-incubated in 10% FCS-containing Rosewell Park Memorial Institute's Medium (RPMI) 1640 (Nissui) (incubation medium) in a 5% carbon dioxide incubator at 37° C. for 5 hours. Next, a DMSO solution of a test compound controlled at 10 mmol/L was stepwise diluted with the incubation medium, and added to each well in a total amount of 100 μL/well, and further incubated in the 5% carbon dioxide incubator at 37° C. for 72 hours. After the incubation, WST-1-labeled mixture (Rosh Diagnostic) diluted 2-fold with the incubation medium was added thereto in an amount of 20 μL/well, and incubated in the 5% carbon dioxide incubator at 37° C. for 2 hours. Using a microplate spectrophotometer (Biorad's Model 550), the absorbance at 450 nm and 655 nm of each well was measured. The cell growth inhibition activity of the test compound was indicated by the 50% growth inhibition concentration (GI50) thereof, like in Test Example 2.
`CCc1c(O)cc(O)c(-c2cccc(C)c2)c1CC1O[C@H](CO)[C@@H](CO)O1` [Compound 228, 5-{[(4R,5R)-4,5-bis(hydroxymethyl)-1,3-dioxolan-2-yl]methyl}-6-ethyl-4-(3-methylphenyl)benzene-1,3-diol]: the GI50 is ≤ 50 µM.

In the case of `CCc1c(O)cc(O)c(-c2cccc(F)c2)c1CC1O[C@@H](CO)[C@H](CO)O1` [Compound 282, 5-{[(4S,5S)-4,5-bis(hydroxymethyl)-1,3-dioxolan-2-yl]methyl}-6-ethyl-4-(3-fluorophenyl)benzene-1,3-diol], the GI50 was ≤ 50 µM.

As for `CCc1c(O)cc(O)c(-c2cccc(OCCN3CCOCC3)c2)c1CCOCC(O)CO` (stereo not shown) [Compound 195, 5-[2-(2,3-Dihydroxypropoxy)ethyl]-6-ethyl-4-[3-(2-morpholinoethoxy)phenyl]benzene-1,3-diol], the GI50 is ≤ 50 µM.

Regarding `CCc1c(O)cc(O)c(-c2ccccc2)c1CC1OCC(CO)O1` (stereo not shown) [Compound 211, 6-Ethyl-5-[(4-hydroxymethyl-1,3-dioxolan-2-yl)methyl]-4-phenylbenzene-1,3-diol], the GI50 was ≤ 50 µM.

As for `CC(=O)c1c(O)cc(O)c(-c2ccccc2)c1CC1O[C@@H](CO)[C@H](CO)O1` [Compound 287, 6-Acetyl-5-{[(4S,5S)-4,5-bis(hydroxymethyl)-1,3-dioxolan-2-yl]methyl}-4-phenylbenzene-1,3-diol], the GI50 was ≤ 50 µM.

Consider `CCc1c(O)cc(O)c(-c2ccccc2)c1CCC(=O)NCCNC(C)=O` [Compound 221, N-[2-(acetylamino)ethyl]-3-(2-ethyl-3,5-dihydroxy-6-phenylphenyl)propanamide], for which the GI50 was ≤ 50 µM.

Turning to `CCOC(=O)Oc1cc(OC(=O)OCC)c(-c2ccccc2)c(CCOCCOC)c1CC` [Compound 325, 1,5-Bis(ethoxycarbonyloxy)-4-ethyl-3-[2-(2-methoxyethoxy)ethyl]-2-phenylbenzene], the GI50 was ≤ 50 µM.

Take `CCc1c(OC(=O)N2CCN(C)CC2)cc(O)c(-c2ccccc2)c1CCOCCOC` [Compound 327, 4-Ethyl-3-[2-(2-methoxyethoxy)ethyl]-5-(4-methylpiperazin-1-ylcarbonyloxy)-2-phenylbenzen-1-ol]: the GI50 was ≤ 50 µM.

With `CCc1c(O)cc(O)c(-c2cccc(C(=O)NC)c2)c1CC1O[C@@H](CO)[C@H](CO)O1` [Compound 289, 5-{[(4S,5S)-4,5-Bis(hydroxymethyl)-1,3-dioxolan-2-yl]methyl}-6-ethyl-4-[3-(methylcarbamoyl)phenyl]benzene-1,3-diol], the GI50 is ≤ 50 µM.

On to `CCc1c(O)cc(O)c(-c2ccccc2)c1CCCC(CO)CO` [Compound 217, 6-Ethyl-5-[5-hydroxy-4-(hydroxymethyl)pentyl]-4-phenylbenzene-1,3-diol], for which the GI50 was ≤ 50 µM.

Regarding `CCc1c(O)cc(O)c(-c2cccc(C(N)=O)c2)c1CC1O[C@H](CO)[C@@H](CO)O1` [Compound 295, 5-{[(4R,5R)-4,5-bis(hydroxymethyl)-1,3-dioxolan-2-yl]methyl}-4-(3-carbamoylphenyl)-6-ethylbenzene-1,3-diol], the GI50 is ≤ 50 µM.

Take `CCc1c(O)cc(O)c(-c2ccccc2)c1CCc1ocnc1C(=O)N(CCO)CCO` [Compound 224, 5-[2-(2-ethyl-3,5-dihydroxy-6-phenylphenyl)ethyl]-N,N-bis(2-hydroxyethyl)-1,3-oxazole-4-carboxamide]: the GI50 was ≤ 50 µM.

On to `OC[C@H]1OC(Cc2c(Br)c(O)cc(O)c2-c2ccccc2)O[C@@H]1CO` [Compound 232, 5-{[(4R,5R)-4,5-bis(hydroxymethyl)-1,3-dioxolan-2-yl]methyl}-6-bromo-4-phenylbenzene-1,3-diol], for which the GI50 was ≤ 50 µM.

On to `CCc1c(O)cc(O)c(-c2cccc(O)c2)c1Cc1nn(CCOC)c(=O)o1` [Compound 324, 5-{[2-Ethyl-3,5-dihydroxy-6-(3-hydroxyphenyl)phenyl]methyl}-3-(2-methoxyethyl)-3H-1,3,4-oxadiazol-2-one], for which the GI50 was ≤ 50 µM.

For the compound `CCc1c(O)cc(O)c(-c2ccccc2)c1CCN1CCC(O)C1` (stereo not shown) [Compound 321, 6-Ethyl-5-[2-(3-hydroxypyrrolidin-1-yl)ethyl]-4-phenylbenzene-1,3-diol], the GI50 is ≤ 50 µM.

Take `CCc1c(O)cc(O)c(-c2ccccc2)c1CCC(=O)NCCO` [Compound 220, 3-(2-Ethyl-3,5-dihydroxy-6-phenylphenyl)-N-(2-hydroxyethyl)propanamide]: the GI50 was ≤ 50 µM.

As for `CCc1c(O)cc(O)c(-c2ccccc2)c1CC1O[C@H](COC)[C@@H](COC)O1` [Compound 308, 5-{[(4R,5R)-4,5-Bis(methoxymethyl)-1,3-dioxolan-2-yl]methyl}-6-ethyl-4-phenylbenzene-1,3-diol], the GI50 is ≤ 50 µM.

Consider `CCc1c(O)cc(O)c(-c2cccc(F)c2)c1CC1O[C@H](CO)[C@@H](CO)O1` [Compound 296, 5-{[(4R,5R)-4,5-bis(hydroxymethyl)-1,3-dioxolan-2-yl]methyl}-6-ethyl-4-(3-fluorophenyl)benzene-1,3-diol], for which the GI50 is ≤ 50 µM.

`CCc1c(O)cc(O)c(-c2ccccc2)c1CCN1CCCC1CO` (stereo not shown) [Compound 316, 6-Ethyl-5-{2-[2-(hydroxymethyl)pyrrolidin-1-yl]ethyl}-4-phenylbenzene-1,3-diol]: the GI50 was ≤ 50 µM.

Regarding `CCc1c(O)cc(O)c(-c2ccc(OC)c(OC)c2)c1CCOCCO` [Compound 309, 6-Ethyl-5-[2-(2-hydroxyethoxy)ethyl]-4-(3,4-dimethoxyphenyl)benzene-1,3-diol], the GI50 was ≤ 50 µM.

Consider `CCc1c(O)cc(O)c(-c2ccccc2)c1CC(O)(CCCO)CCCO` [Compound 199, 6-Ethyl-5-[2,5-dihydroxy-2-(3-hydroxypropyl)pentyl]-4-phenylbenzene-1,3-diol], for which the GI50 was ≤ 50 µM.

Turning to `CCc1c(OC(=O)N(C)C)cc(OC(=O)N(C)C)c(-c2ccccc2)c1CCOCCOC` [Compound 326, 1,5-Bis(dimethylcarbamoyloxy)-4-ethyl-3-[2-(2-methoxyethoxy)ethyl]-2-phenylbenzene], the GI50 was ≤ 50 µM.

On to `CCc1c(O)cc(O)c(-c2ccccc2)c1Cc1ocnc1CO` [Compound 208, 6-Ethyl-5-{[4-(hydroxymethyl)-1,3-oxazol-5-yl]methyl}-4-phenylbenzene-1,3-diol], for which the GI50 is ≤ 50 µM.

Consider `CCc1c(O)cc(O)c(-c2cccc(C(=O)NCCOC)c2)c1CC1O[C@H](CO)[C@@H](CO)O1` [Compound 303, 5-{[(4R,5R)-4,5-Bis(hydroxymethyl)-1,3-dioxolan-2-yl]methyl}-6-ethyl-4-[3-(2-methoxyethyl)carbamoylphenyl]benzene-1,3-diol], for which the GI50 was ≤ 50 µM.

As to `CCc1c(O)cc(O)c(-c2cccc(NC(C)=O)c2)c1CCOCC(O)CO` (stereo not shown) [Compound 204, 4-[3-(N-acetylamino)phenyl]-5-[2-(2,3-dihydroxypropoxy)ethyl]-6-ethylbenzene-1,3-diol], the GI50 was ≤ 50 µM.

For `CCc1c(O)cc(O)c(-c2cccc(OC)c2)c1CC1O[C@H](CO)[C@@H](CO)O1` [Compound 286, 5-{[(4R,5R)-4,5-bis(hydroxymethyl)-1,3-dioxolan-2-yl]methyl}-6-ethyl-4-(3-methoxyphenyl)benzene-1,3-diol], the GI50 was ≤ 50 µM.

For the compound `CCc1c(O)cc(O)c(-c2ccccc2)c1CCC(CO)CO` [Compound 215, 6-Ethyl-5-[4-hydroxy-3-(hydroxymethyl)butyl]-4-phenylbenzene-1,3-diol], the GI50 is ≤ 50 µM.

As to `CCc1c(O)cc(O)c(-c2ccccc2)c1CCc1ocnc1C(=O)NCCO` [Compound 223, 5-[2-(2-Ethyl-3,5-dihydroxy-6-phenylphenyl)ethyl]-N-(2-hydroxyethyl)-1,3-oxazole-4-carboxamide], the GI50 was ≤ 50 µM.

On to `CCc1c(O)cc(O)c(-c2ccccc2)c1CCc1ocnc1C(=O)NC(CO)CO` [Compound 225, 5-[2-(2-ethyl-3,5-dihydroxy-6-phenylphenyl)ethyl]-N-[2-hydroxy-1-(hydroxymethyl)ethyl]-1,3-oxazole-4-carboxamide], for which the GI50 was ≤ 50 µM.

As to `OC[C@H]1OC(Cc2cc(O)cc(O)c2-c2ccccc2)O[C@@H]1CO` [Compound 230, 5-{[(4R,5R)-4,5-bis(hydroxymethyl)-1,3-dioxolan-2-yl]methyl}-4-phenylbenzene-1,3-diol], the GI50 is ≤ 50 µM.

For the compound `CCc1c(O)cc(O)c(-c2cccc(NC(C)=O)c2)c1CC1O[C@@H](CO)[C@H](CO)O1` [Compound 284, 4-[3-(acetylamino)phenyl]-5-{[(4S,5S)-4,5-bis(hydroxymethyl)-1,3-dioxolan-2-yl]methyl}-6-ethylbenzene-1,3-diol], the GI50 is ≤ 50 µM.

As to `CCc1c(O)cc(O)c(-c2cccc(C(=O)N(C)C)c2)c1CC1O[C@@H](CO)[C@H](CO)O1` [Compound 290, 5-{[(4S,5S)-4,5-Bis(hydroxymethyl)-1,3-dioxolan-2-yl]methyl}-4-[3-(dimethylcarbamoyl)phenyl]-6-ethylbenzene-1,3-diol], the GI50 is ≤ 50 µM.

Consider `CCc1c(O)cc(O)c(-c2ccccc2)c1Cc1ocnc1C(=O)OC` [Compound 200, Methyl 5-[(2-ethyl-3,5-dihydroxy-6-phenylphenyl)methyl]-1,3-oxazole-4-carboxylate], for which the GI50 is ≤ 50 µM.

Consider `CCc1c(O)cc(O)c(-c2cccc(O)c2)c1CC1O[C@H](CO)[C@@H](CO)O1` [Compound 298, 5-{[(4R,5R)-4,5-Bis(hydroxymethyl)-1,3-dioxolan-2-yl]methyl}-6-ethyl-4-(3-hydroxyphenyl)benzene-1,3-diol], for which the GI50 was ≤ 50 µM.
